# Results reported in ChEMBL document CHEMBL5620344, “Discovery of novel 5-(2-hydroxyphenyl)-2-phthalide-3(3H)-pyrazolones as balanced multifunctional agents against Alzheimer's disease” (Eur J Med Chem, 2023).
# Calls of active or inactive are those of the source. The calls are words filed in the database; no cut-off is given here.
# How the values were obtained:
# [1] = Half life in BALB/c mouse brain at 30 mg/kg, ig; assay type: ADME, organism-based; conditions: po
# Mus musculus [2] = assay: Anti-oxidative stress against amyloid beta (1-42)-induced alzheimer's disease mouse model assessed as increase in SOD activity in hippocampus at 8 to 32 mg/kg and measured on day 6; assay type: functional, organism-based; conditions: dose 8-32 mg/kg, time 6.0 day
# BV-2 [3] = assay: Anti-neuroinflammatory activity against LPS-stimulated mouse BV-2 cells assessed as inhibition of NO release at 0.5 uM incubated for 24 hrs by Griess reagent based assay; assay type: functional
# [4] = molecular target: Amyloid-beta precursor protein (Homo sapiens) (UniProt P05067); assay: Inhibition of self-induced amyloid beta (1 to 42) (unknown origin) aggregation assessed as short and thin fibrils incubated for 24 hrs by transmission electron microscopy
# Amyloid-beta precursor protein (Homo sapiens), sequence (P05067 whole entry): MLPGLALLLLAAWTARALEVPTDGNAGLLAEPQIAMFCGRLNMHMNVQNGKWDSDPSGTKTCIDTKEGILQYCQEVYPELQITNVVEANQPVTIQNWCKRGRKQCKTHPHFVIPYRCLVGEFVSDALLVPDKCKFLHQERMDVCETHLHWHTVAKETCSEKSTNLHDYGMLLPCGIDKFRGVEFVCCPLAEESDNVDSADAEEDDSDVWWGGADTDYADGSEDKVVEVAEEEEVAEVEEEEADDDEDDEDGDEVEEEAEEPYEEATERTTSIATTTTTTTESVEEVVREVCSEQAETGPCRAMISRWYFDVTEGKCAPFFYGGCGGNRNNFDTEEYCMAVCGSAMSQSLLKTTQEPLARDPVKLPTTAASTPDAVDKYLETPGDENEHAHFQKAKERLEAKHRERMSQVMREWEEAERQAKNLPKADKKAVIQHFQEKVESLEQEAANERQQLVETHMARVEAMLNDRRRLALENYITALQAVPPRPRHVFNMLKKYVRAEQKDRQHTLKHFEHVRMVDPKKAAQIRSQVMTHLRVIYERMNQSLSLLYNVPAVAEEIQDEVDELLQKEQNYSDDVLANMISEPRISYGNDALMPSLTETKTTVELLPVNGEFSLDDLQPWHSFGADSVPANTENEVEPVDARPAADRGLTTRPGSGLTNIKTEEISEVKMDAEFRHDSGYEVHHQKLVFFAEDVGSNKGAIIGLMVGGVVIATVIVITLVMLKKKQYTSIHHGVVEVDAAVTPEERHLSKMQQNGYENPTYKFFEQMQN
# [5] = molecular target: T1, Amine oxidase [flavin-containing] A (Homo sapiens, UniProt P21397); assay: Inhibition of human recombinant MAO-A
# T1 sequence (P21397 whole entry): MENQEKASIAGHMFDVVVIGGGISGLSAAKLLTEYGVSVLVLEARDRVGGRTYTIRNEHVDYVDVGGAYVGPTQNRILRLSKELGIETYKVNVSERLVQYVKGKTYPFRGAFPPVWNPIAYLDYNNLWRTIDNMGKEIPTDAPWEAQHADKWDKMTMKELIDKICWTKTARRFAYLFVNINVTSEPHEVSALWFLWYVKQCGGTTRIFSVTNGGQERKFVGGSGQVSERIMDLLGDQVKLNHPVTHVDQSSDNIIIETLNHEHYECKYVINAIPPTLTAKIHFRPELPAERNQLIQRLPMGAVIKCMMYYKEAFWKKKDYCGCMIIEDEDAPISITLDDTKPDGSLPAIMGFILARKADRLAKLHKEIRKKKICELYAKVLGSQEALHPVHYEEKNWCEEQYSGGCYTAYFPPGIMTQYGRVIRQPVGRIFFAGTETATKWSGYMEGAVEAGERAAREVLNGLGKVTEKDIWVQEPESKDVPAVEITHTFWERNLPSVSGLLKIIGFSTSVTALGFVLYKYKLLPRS
# [6] = molecular target: Amyloid-beta precursor protein (Homo sapiens) (UniProt P05067); assay: Inhibition of Cu2+-induced amyloid beta (1 to 42) (unknown origin) aggregation at 25 uM by ThT fluorescence assay
# [7] = Metal chelating activity assessed as compound-Cu2+ complex formation at stoichiometric ratio of 1:1 in presence of CuCl2 by UV-Vis spectroscopy
# [8] = molecular target: Amyloid-beta precursor protein (Homo sapiens) (UniProt P05067); assay: Disaggregation of self-induced amyloid beta (1 to 42) (unknown origin) preformed fibrils at 25 uM by ThT fluorescence assay
# PC-12 [9] = assay: Neuroprotective activity against H2O2-induced cytotoxicity in rat PC12 cells assessed as cell viability at 10 uM by MTT assay (reference value: 54.9%); assay type: functional; conditions: read-out: Activity
# BV-2 [10] = assay: Anti-neuroinflammatory activity against LPS-stimulated mouse BV-2 cells assessed as inhibition of NO release at 10 uM incubated for 24 hrs by Griess reagent based assay; assay type: functional
# BV-2 [11] = assay: Anti-neuroinflammatory activity against LPS-stimulated mouse BV-2 cells assessed as inhibition of TNF-alpha release at 2.5 uM by ELISA; assay type: functional
# [12] = Tmax in BALB/c mouse brain at 30 mg/kg, ig; assay type: ADME, organism-based; conditions: po
# [13] = Cmax in BALB/c mouse brain at 30 mg/kg, ig; assay type: ADME, organism-based; conditions: po
# [14] = Metal chelating activity assessed as compound-Zn2+ complex formation by measuring red shift of absorption peak with declined absorption at 37.5 uM in presence of ZnCl2 by UV-Vis spectrometry
# [15] = molecular target: Amyloid-beta precursor protein (Homo sapiens) (UniProt P05067); assay: Disaggregation of Cu2+-induced amyloid beta (1 to 42) (unknown origin) preformed fibrils at 25 uM by ThT fluorescence assay
# [16] = molecular target: Amyloid-beta precursor protein (Homo sapiens) (UniProt P05067); assay: Inhibition of Cu2+-induced amyloid beta (1 to 42) (unknown origin) aggregation assessed as fewer amyloid beta (1 to 42) fibrils formation incubated for 24 hrs by transmission electron microscopy
# BV-2 [17] = assay: Antioxidant activity against LPS-stimulated mouse BV-2 cells assessed as inhibition of ROS generation by measuring decrease in fluorescence intensity at 2.5 to 10 uM by DCFH-DA staining based fluorescence microscopy; assay type: functional, cell-based; conditions: dose 2.5-10 µM
# Mus musculus [18] = assay: Antialzheimer activity against amyloid beta (1-42)-induced alzheimer's disease mouse model assessed as decrease in cognitive impairment by measuring increase in number of crossing the target area in spatial probe trial at 8 to 32 mg/kg and measured on day 6 by Morris water maze test; assay type: functional, organism-based; conditions: dose 8-32 mg/kg, time 6.0 day
# [19] = Metal chelating activity assessed as compound-Fe3+ complex formation by measuring blue shift of maximum absorption peak at 37.5 uM in presence of FeCl3 by UV-Vis spectrometry
# PC-12 [20] = assay: Neuroprotective activity against H2O2-induced cytotoxicity in rat PC12 cells assessed as cell viability at 1 uM by MTT assay (reference value: 54.9%); assay type: functional; conditions: read-out: Activity
# [21] = molecular target: Amyloid-beta precursor protein (Homo sapiens) (UniProt P05067); assay: Disaggregation of Cu2+-induced amyloid beta (1 to 42) (unknown origin) preformed fibrils assessed as decrease in size of aggregates incubated for 24 hrs by transmission electron microcopy
# [22] = Cmax in BALB/c mouse plasma at 30 mg/kg, ig; assay type: ADME, organism-based; conditions: po
# [23] = molecular target: Amyloid-beta precursor protein (Homo sapiens) (UniProt P05067); assay: Inhibition of self-induced amyloid beta (1 to 42) (unknown origin) aggregation assessed as decrease in number of aggregates formed incubated for 24 hrs by transmission electron microscopy
# [24] = Metal chelating activity assessed as compound-Fe2+ complex formation by measuring increase in absorbance at 37.5 uM in presence of FeSO4 by UV-vis spectrometry
structure (smiles),measurement,setting,value
CCCCCCCC1OC(=O)c2cc(N3N=C(c4cc(Cl)ccc4O)CC3=O)ccc21 (centres undefined),half-life,[1],2.07 h
same,Activity,Mus musculus [2],Dose-Dependent Effect
same,inhibition at 0.5 µM,BV-2 [3],25.9%
same,inhibition,[4],Active
same,IC50,[5],> 10 µM
same,inhibition,[6],57.5%
same,Activity,[7],Active
same,Activity,[8],81.9%
same,viability at 10 µM,PC-12 [9],77.7%
same,inhibition at 10 µM,BV-2 [10],76.3%
same,inhibition at 2.5 µM,BV-2 [11],51.6%
same,Tmax,[12],1 h
same,Cmax,[13],923 ng/g
same,Activity,[14],Active
same,Activity,[15],82.4%
same,inhibition,[16],Active
same,Activity,BV-2 [17],Active
same,Activity,Mus musculus [18],Active
same,Activity,[19],Active
same,viability at 1 µM,PC-12 [20],66.9%
same,Activity,[21],Active
same,Cmax,[22],1540 ng/mL
same,inhibition,[23],Active
same,Activity,[24],Active
